Reference: ChEMBL document CHEMBL5584237, “Design, synthesis, biological evaluation, and in silico studies of novel pyridopyridine derivatives as anticancer candidates targeting FMS kinase” (Eur J Med Chem, 2024)
Blank lines part the entries; values can stand above or below the compound they belong to.

What was measured:
[1] = target: T1, Macrophage colony-stimulating factor 1 receptor (Homo sapiens, UniProt P07333); experiment: Inhibition of FMS (unknown origin) using myelin basic protein as substrate measured after 40 mins in presence of [gamma-33P]-ATP by scintillation counting method
[2] = Cytotoxicity against human HS27 cells assessed as reduction in cell growth measured after 48 hrs by MTT assay; type: toxicity, cell-based
HepG2 = experiment: cells; conditions: Homo sapiens, HepG2, 48 h
Description: Antiproliferative activity against human HepG2 cells assessed as cell growth inhibition measured after 48 hrs by MTT assay

Hep 3B2 [3] = experiment: cells; conditions: Homo sapiens, Hep3B, 48 h
[4] = Cytotoxicity against human WI-38 cells assessed as reduction in cell growth measured after 48 hrs by MTT assay; type: toxicity, cell-based
[5] = target: Voltage-gated inwardly rectifying potassium channel KCNH2 (Homo sapiens, UniProt Q12809); experiment: Inhibition of fluorescence tracer red binding to human ERG measured after 3 hrs by fluorescence polarization assay
[6] = target: T1, Macrophage colony-stimulating factor 1 receptor; experiment: Inhibition of NanoLuc-fused FMS (unknown origin) transfected in HEK293 cells by NanoBRET assay; type: cell-based
Hep 3B2 [7] = experiment: Antiproliferative activity against human Hep3B cells assessed as cell growth inhibition at 10 uM measured after 48 hrs by MTT assay relative to control; type: functional; conditions: read-out: GI
BMDM = experiment: Inhibition of CSF-1-induced C57BL6 mouse BMDM cell growth preincubated for 1 hr followed by CSF-1 addition and measured after 5 hrs by alamar blue assay
NCI-H460 = experiment: Antiproliferative activity against human NCI-H460 cells assessed as cell growth inhibition; type: functional
MDA-MB-231 = experiment: Antiproliferative activity against human MDA-MB-231 cells assessed as cell growth inhibition; type: functional
DU-145 = experiment: Antiproliferative activity against human DU-145 cells assessed as cell growth inhibition; type: functional
SNB-75 = experiment: Antiproliferative activity against human SNB-75 cells assessed as cell growth inhibition; type: functional
HCT-15 = experiment: Antiproliferative activity against human HCT-15 cells assessed as cell growth inhibition; type: functional
SK-MEL-28 = experiment: Antiproliferative activity against human SK-MEL-28 cells assessed as cell growth inhibition; type: functional
SW-620 = experiment: Antiproliferative activity against human SW-620 cells assessed as cell growth inhibition; type: functional
OVCAR-4 = experiment: Antiproliferative activity against human OVCAR-4 cells assessed as cell growth inhibition; type: functional
MDA-MB-435 = experiment: Antiproliferative activity against human MDA-MB-435 cells assessed as cell growth inhibition; type: functional
OVCAR-3 = experiment: Antiproliferative activity against human OVCAR-3 cells assessed as cell growth inhibition; type: functional
SN12C = experiment: Antiproliferative activity against human SN12C cells assessed as cell growth inhibition; type: functional
A549 = experiment: Antiproliferative activity against human A549 cells assessed as cell growth inhibition; type: functional
CAKI-1 = experiment: Antiproliferative activity against human CAKI-1 cells assessed as cell growth inhibition; type: functional
MCF7 = experiment: Antiproliferative activity against human MCF7 cells assessed as cell growth inhibition; type: functional
SF-539 = experiment: Antiproliferative activity against human SF-539 cells assessed as cell growth inhibition; type: functional
COLO 205 = experiment: Antiproliferative activity against human COLO 205 cells assessed as cell growth inhibition; type: functional
SF-295 = experiment: Antiproliferative activity against human SF-295 cells assessed as cell growth inhibition; type: functional
HT-29 = experiment: Antiproliferative activity against human HT-29 cells assessed as cell growth inhibition; type: functional
MOLT-4 = experiment: Antiproliferative activity against human MOLT-4 cells assessed as cell growth inhibition; type: functional
SR = experiment: Antiproliferative activity against human SR cells assessed as cell growth inhibition; type: functional
Hs-578T = experiment: Antiproliferative activity against human Hs-578T cells assessed as cell growth inhibition; type: functional
K562 = experiment: Antiproliferative activity against human K562 cells assessed as cell growth inhibition; type: functional
M14 = experiment: Antiproliferative activity against human M14 cells assessed as cell growth inhibition; type: functional
Malme-3M = experiment: Antiproliferative activity against human Malme-3M cells assessed as cell growth inhibition; type: functional
LOX IMVI = experiment: Antiproliferative activity against human LOX IMVI cells assessed as cell growth inhibition; type: functional
MDA-MB-468 = experiment: Antiproliferative activity against human MDA-MB-468 cells assessed as cell growth inhibition; type: functional
PC-3 = experiment: Antiproliferative activity against human PC-3 cells assessed as cell growth inhibition; type: functional
RXF 393 = experiment: Antiproliferative activity against human RXF 393 cells assessed as cell growth inhibition; type: functional
CCRF-CEM = experiment: Antiproliferative activity against human CCRF-CEM cells assessed as cell growth inhibition; type: functional
786-0 = experiment: Antiproliferative activity against human 786-0 cells assessed as cell growth inhibition; type: functional
HCT-116 = experiment: Antiproliferative activity against human HCT-116 cells assessed as cell growth inhibition; type: functional

T1 sequence (P07333 whole entry): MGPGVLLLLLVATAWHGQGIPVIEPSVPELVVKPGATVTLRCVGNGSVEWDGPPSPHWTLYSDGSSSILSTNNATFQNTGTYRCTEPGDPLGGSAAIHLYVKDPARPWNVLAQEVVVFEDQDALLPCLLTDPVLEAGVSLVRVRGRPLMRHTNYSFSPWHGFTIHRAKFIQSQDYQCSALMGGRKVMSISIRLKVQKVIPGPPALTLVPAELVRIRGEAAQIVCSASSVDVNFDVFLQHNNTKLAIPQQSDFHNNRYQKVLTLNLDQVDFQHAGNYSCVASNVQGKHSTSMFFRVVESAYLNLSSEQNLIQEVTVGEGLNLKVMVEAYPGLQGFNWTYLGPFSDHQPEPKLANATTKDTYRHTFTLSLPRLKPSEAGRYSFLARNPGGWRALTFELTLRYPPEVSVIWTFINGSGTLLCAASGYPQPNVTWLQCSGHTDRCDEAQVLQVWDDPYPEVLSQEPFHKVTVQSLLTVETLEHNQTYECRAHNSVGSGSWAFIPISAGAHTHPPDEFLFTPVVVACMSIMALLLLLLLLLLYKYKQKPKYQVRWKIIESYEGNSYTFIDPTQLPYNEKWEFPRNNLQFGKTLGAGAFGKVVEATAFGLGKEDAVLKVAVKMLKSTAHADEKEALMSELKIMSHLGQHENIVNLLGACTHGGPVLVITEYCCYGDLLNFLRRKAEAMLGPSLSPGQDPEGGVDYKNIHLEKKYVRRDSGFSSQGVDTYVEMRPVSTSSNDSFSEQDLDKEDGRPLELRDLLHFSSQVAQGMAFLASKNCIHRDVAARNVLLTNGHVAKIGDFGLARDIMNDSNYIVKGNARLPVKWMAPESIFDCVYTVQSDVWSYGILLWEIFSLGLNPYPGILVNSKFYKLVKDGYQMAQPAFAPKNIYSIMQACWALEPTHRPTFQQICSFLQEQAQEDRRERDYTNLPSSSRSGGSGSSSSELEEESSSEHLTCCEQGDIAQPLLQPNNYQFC
Voltage-gated inwardly rectifying potassium channel KCNH2, sequence (Q12809 whole entry, the tested form may be a part): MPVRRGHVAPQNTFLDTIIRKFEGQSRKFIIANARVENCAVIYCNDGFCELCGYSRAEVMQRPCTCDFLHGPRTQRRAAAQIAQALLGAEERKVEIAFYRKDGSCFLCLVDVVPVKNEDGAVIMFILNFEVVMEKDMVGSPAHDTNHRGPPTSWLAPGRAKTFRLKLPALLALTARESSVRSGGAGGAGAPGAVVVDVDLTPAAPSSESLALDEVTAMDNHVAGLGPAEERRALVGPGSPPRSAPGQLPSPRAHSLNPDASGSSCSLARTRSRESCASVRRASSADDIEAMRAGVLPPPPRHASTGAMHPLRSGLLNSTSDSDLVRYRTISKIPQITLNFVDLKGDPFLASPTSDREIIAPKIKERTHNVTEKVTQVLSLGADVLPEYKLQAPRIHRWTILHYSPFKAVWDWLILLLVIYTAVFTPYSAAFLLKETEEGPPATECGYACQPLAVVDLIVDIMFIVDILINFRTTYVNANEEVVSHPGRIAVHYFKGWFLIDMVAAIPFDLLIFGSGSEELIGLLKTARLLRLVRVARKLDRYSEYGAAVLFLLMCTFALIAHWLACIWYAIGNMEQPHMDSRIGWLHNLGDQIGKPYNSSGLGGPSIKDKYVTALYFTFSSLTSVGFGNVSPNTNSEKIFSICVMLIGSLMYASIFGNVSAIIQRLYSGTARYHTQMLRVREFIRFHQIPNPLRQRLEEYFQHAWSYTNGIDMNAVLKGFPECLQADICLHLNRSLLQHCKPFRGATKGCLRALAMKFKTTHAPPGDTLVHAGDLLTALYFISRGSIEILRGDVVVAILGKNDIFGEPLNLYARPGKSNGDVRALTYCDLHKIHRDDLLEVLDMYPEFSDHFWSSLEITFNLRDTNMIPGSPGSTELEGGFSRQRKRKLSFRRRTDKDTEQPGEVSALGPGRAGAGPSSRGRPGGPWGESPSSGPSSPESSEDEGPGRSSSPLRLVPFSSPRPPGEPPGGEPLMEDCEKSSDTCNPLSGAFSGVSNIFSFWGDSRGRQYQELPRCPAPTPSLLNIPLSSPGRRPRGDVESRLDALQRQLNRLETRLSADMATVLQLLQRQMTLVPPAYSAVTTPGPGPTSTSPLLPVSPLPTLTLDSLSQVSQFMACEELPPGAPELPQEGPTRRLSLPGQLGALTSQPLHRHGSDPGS

IC50 ([1]; read-out: IC50): 0.901 µM
Compound: CC(C)NC(=O)c1cc(-c2ccc(NC(=O)Nc3ccc(N4CCOCC4)c(C(F)(F)F)c3)cc2)nc2cccnc12

IC50 (HepG2): 1.27 µM | IC50 (Hep 3B2 [3]): 1.89 µM | IC50 ([1]; read-out: IC50): 0.134 µM
Compound: CNC(=O)c1cc(-c2ccc(NC(=O)Nc3ccc(N4CCOCC4)c(C(F)(F)F)c3)cc2)nc2cccnc12
IC50 at 48 h [2]: 11.6 µM | IC50 at 48 h [4]: > 20 µM

IC50 [6]: 0.563 µM
Compound: CNC(=O)c1cc(-c2ccc(NC(=O)Nc3ccc(N4CCN(C)CC4)c(C(F)(F)F)c3)cc2)nc2cccnc12
IC50 [5]: 95.9 µM

Compound: CC(C)NC(=O)c1cc(-c2ccc(NC(=O)Nc3ccc(F)c(C(F)(F)F)c3)cc2)nc2cccnc12
inhibition of growth at 10 µM (Hep 3B2 [7]): 84.8%

GI50 (NCI-H460): 0.66 µM | GI50 (HCT-15): 0.33 µM | GI50 (SK-MEL-28): 0.32 µM | GI50 (SW-620): 0.31 µM | GI50 (MDA-MB-435): 0.27 µM | GI50 (A549): 0.47 µM | GI50 (MCF7): 0.29 µM | IC50 [6]: 1.35 µM | GI50 (HT-29): 0.53 µM | GI50 (MOLT-4): 0.69 µM | GI50 (K562): 0.66 µM | GI50 (CCRF-CEM): 0.46 µM | GI50 (786-0): 0.3 µM
Compound: CCN1CCN(c2ccc(NC(=O)Nc3ccc(-c4cc(C(=O)NC)c5ncccc5n4)cc3)cc2C(F)(F)F)CC1
IC50 (BMDM): 0.167 µM | TGI (NCI-H460): 2.93 µM | TGI (MDA-MB-231): 5.25 µM | TGI (DU-145): 4.9 µM | GI50 (SNB-75): 0.84 µM | TGI (SNB-75): 3.82 µM | TGI (HCT-15): 0.7 µM | TGI (SK-MEL-28): 0.58 µM | TGI (SW-620): 0.62 µM | TGI (OVCAR-4): 5.63 µM | TGI (MDA-MB-435): 0.56 µM | IC50 [5]: 83.4 µM | TGI (OVCAR-3): 5.06 µM | TGI (SN12C): 5.3 µM | TGI (A549): 13 µM | TGI (CAKI-1): 5.6 µM | TGI (MCF7): 0.61 µM | GI50 (SF-539): 2.3 µM | TGI (SF-539): 4.57 µM | TGI (COLO 205): 14.2 µM | IC50 at 48 h [2]: 8.8 µM | TGI (SF-295): 4.47 µM | TGI (HT-29): 2.11 µM | TGI (MOLT-4): 18 µM | GI50 (SR): 0.67 µM | TGI (SR): 18 µM | TGI (Hs-578T): 6.88 µM | TGI (K562): 18 µM | GI50 (M14): 0.4 µM | TGI (M14): 1.05 µM | GI50 (Malme-3M): 0.29 µM | TGI (Malme-3M): 0.53 µM | GI50 (LOX IMVI): 0.67 µM | TGI (LOX IMVI): 2.66 µM | TGI (MDA-MB-468): 5.03 µM | IC50 at 48 h [4]: 16.7 µM | TGI (PC-3): 6.03 µM | GI50 (RXF 393): 0.5 µM | TGI (RXF 393): 1.66 µM | TGI (CCRF-CEM): 1.27 µM | TGI (786-0): 0.58 µM | TGI (HCT-116): 4.83 µM

IC50 ([1]; read-out: IC50): 0.743 µM
Compound: CNC(=O)c1cc(-c2ccc(NC(=O)Nc3ccc(N4CCNCC4)c(C(F)(F)F)c3)cc2)nc2cccnc12

IC50 (HepG2): 0.8 µM | IC50 (Hep 3B2 [3]): 1.76 µM | IC50 ([1]; read-out: IC50): 0.797 µM | IC50 ([1]; read-out: pIC50 (converted)): 0.813 µM
Compound: CC(C)NC(=O)c1cc(-c2ccc(NC(=O)Nc3ccc(N4CCN(C)CC4)c(C(F)(F)F)c3)cc2)nc2cccnc12
IC50 at 48 h [2]: 8 µM | IC50 at 48 h [4]: 18.3 µM

IC50 (HepG2): 0.87 µM | IC50 (Hep 3B2 [3]): 0.81 µM | IC50 ([1]; read-out: IC50): 0.788 µM
Compound: C=CC(=O)N1CCN(c2ccc(NC(=O)Nc3ccc(-c4cc(C(=O)NC(C)C)c5ncccc5n4)cc3)cc2C(F)(F)F)CC1
IC50 at 48 h [2]: 8.1 µM | IC50 at 48 h [4]: 15.8 µM

IC50 (HepG2): 0.92 µM | IC50 (Hep 3B2 [3]): 0.85 µM | IC50 ([1]; read-out: IC50): 0.852 µM
Compound: CC(C)NC(=O)c1cc(-c2ccc(NC(=O)Nc3ccc(N4CCNCC4)c(C(F)(F)F)c3)cc2)nc2cccnc12
IC50 at 48 h [2]: 9.1 µM | IC50 at 48 h [4]: 18.6 µM

GI50 (NCI-H460): 2.51 µM | GI50 (MDA-MB-231): 1.26 µM | GI50 (DU-145): 3.16 µM | GI50 (HCT-15): 2.51 µM | GI50 (SK-MEL-28): 2.51 µM | GI50 (SW-620): 2.51 µM | GI50 (OVCAR-4): 3.16 µM | GI50 (OVCAR-3): 3.16 µM | GI50 (A549): 3.16 µM | GI50 (MCF7): 2.51 µM | GI50 (COLO 205): 2 µM | GI50 (HT-29): 2 µM | GI50 (MOLT-4): 3.16 µM | GI50 (K562): 3.16 µM | GI50 (PC-3): 2 µM | GI50 (CCRF-CEM): 2 µM | GI50 (786-0): 3.16 µM
Compound: CNC(=O)c1cc(Oc2ccc(NC(=O)Nc3ccc(Cl)c(C(F)(F)F)c3)cc2)ccn1 [SORAFENIB]
GI50 (SNB-75): 3.16 µM | inhibition of growth at 10 µM (Hep 3B2 [7]): 75% | GI50 (SN12C): 2.51 µM | GI50 (CAKI-1): 3.16 µM | TGI (MCF7): 7.94 µM | IC50 at 48 h [2]: 8.3 µM | TGI (MOLT-4): 100 µM | GI50 (SR): 3.16 µM | GI50 (M14): 2 µM | GI50 (Malme-3M): 2 µM | GI50 (RXF 393): 3.16 µM

IC50 ([1]; read-out: IC50): 0.196 µM
Compound: C=CC(=O)N1CCN(c2ccc(NC(=O)Nc3ccc(-c4cc(C(=O)NC)c5ncccc5n4)cc3)cc2C(F)(F)F)CC1
